# Source: patent US8101740B2, “Positron emission tomography probes for imaging immune activation and selected cancers” (The Regents of the University of California, priority 2007, dated 2012)
# Columns and labels:
# [1] = probe accumulation in necropsy tissue of mouse strains incl. BDC-2.5 (type 1 diabetes model); format: in vivo, BDC-2.5 mice; details: necropsy tissue samples
# Source text: Elevated retention of the [^18F]D-FAC probe in joints and the intestine over physiologic uptake values may reflect the presence of an active inflammatory processes that is characteristic of rheumatoid arthritis and inflammatory bowel disease, respectively. [^18F]D-FAC microPET can also be used to detect overt autoreactive immune activation in a BDC-2.5 mouse model that is prone to type 1 diabetes (FIG. 8). In FIG. 8A, the 1 mm coronal sections illustrate the pattern of [^18F]D-FAC probe accumulation in BDC-2.5 mice. (Abbreviations: CV, cervical LNs; AX, axillary LNs; BR, brachial LNs; IN, inguinal LNs; THY, Thymus; GI, Gastrointestinal tract; H, heart.) In FIG. 8B, [^18F]D-FAC accumulation is measured in necropsy tissue samples from BL/6, BALB/c, NOD LTJ, and BDC-2.5 mice.
# FIG. 8 presents the results of microPET/CT imaging performed on BDC-2.5 T cell receptor transgenic mice injected with the [^18F]D-FAC probe. The BDC-2.5 strain is a well-established animal model for type I (autoimmunity-based) diabetes. In FIG. 8A, the 1 mm coronal sections illustrate the pattern of the [^18F]D-FAC probe accumulation in BDC-2.5 mice. (Abbreviations: CV, cervical LNs; AX, axillary LNs; BR, brachial LNs; IN, inguinal LNs; THY, Thymus; GI, Gastrointestinal tract; H, heart.) In FIG. 8B, [^18F]D-FAC accumulation is measured in necropsy tissue samples from BL/6, BALB/c, NOD Ltj and BDC-2.5 mice. […]
# MoMSV-induced sarcomas = test: microPET/CT in oncoretrovirus (MoMSV) sarcoma model of anti-tumor immunity
# Protocol: All the mice used in these studies were bred and maintained according to the guidelines of the Department of Laboratory Animal Medicine (DLAM) at the University of California, Los Angeles. For the oncoretrovirus-induced sarcoma model, C57/BL6 mice were challenged intramuscularly in the right triceps with the Moloney murine sarcoma and leukemia virus complex (MoMSV) in a volume of 100 uL of PBS as described previously^6. B6-MRL-Fas^1pr/J mice used for systemic autoimmunity studies were purchased from the Jackson Laboratory (stock number 000482). To monitor the immunosuppressive treatment, these mice were given intraperitoneal injections of dexamethasone (DEX, 10 mg/kg) at 24 hr intervals and were scanned by microPET/CT 24 hr after the last injection. Animals were anesthetized with 2% isoflurane, injected intravenously with 200 microCi [^18F]D-FAC and then scanned with microPET/CT; mice were sacrificed immediately after imaging. Organs were rapidly excised, weighed, and the radioactivity was measured in a well counter. After decay correction, results were expressed as percent of the injected dose of activity per gram of tissue (% ID/g). Other mice were anesthetized with 2% isoflurane and injected intravenously with 1 mCi [^18F]D-FAC. After 1 hr, mice were euthanized, embedded in 3% carboxymethyl cellulose (CMC, Sigma), and frozen in 100% ethanol with dry ice for 45 min. The 50 micron sections were cut using a whole body cryostat, (PMV, Stockholm, Sweden); samples were exposed overnight on BAS-TR2025 plates (Fujifilm Life Science, Stamford, Conn.). Imaging plates were read using a Fujibas-5000 phosphorimager (16 bit, 25 micron resolution; Fujifilm Life Science).
# In this model, antigen-specific T cells primed by immunodominant epitopes encoded by viral gag and env genes rapidly expand in spleen and tumor draining lymph nodes (DLNs) and then traffic to the tumor lesion which is rejected over a period of 2-5 weeks^17,18. In fact, the kinetics of T cell responses against MoMSV-induced sarcomas have been studied extensively using conventional ex vivo approaches and our group has used PET reporter gene imaging to visualize tumor rejection in this model^17. To analyze whether the [^18F]D-FAC microPET/CT imaging can detect sites of localized immune activation, mice were scanned before and after the virus challenge.
# To determine whether [^18F]D-FAC can provide unique information regarding localized immune activation via the afore-mentioned model, the mice imaged by [^18F]D-FAC were also scanned on consecutive days using [^18F]FDG and [^18F]FLT.
# murine B16 cells = test: microPET/CT of implanted B16 melanoma; format: in vivo, C57BL/6 mice; details: imaged 7 days after 1×10^5 cells subcutaneously
# Protocol: (§1) In addition to immune diseases, [^18F]D-FAC may also be used to measure dysregulated nucleoside metabolism in cancer. To this end, we examined the utility of [^18F]D-FAC microPET in animal models representative of leukemia or lymphoma, melanoma, and glioma tumors (FIG. 12, where the images are 1 mm coronal sections from [^18F]D-FAC microPET/CT scans 1 hr after probe injection). In FIG. 12A, SCID mice were injected intravenously with Ba/F3 cells expressing p210 BCR-ABL and go on to develop aggressive disease with massive splenic infiltration that typically results in death within ˜15 days (mice shown were imaged on day 12). In FIG. 12B, the NOD SCID mice were transplanted with wild type total bone marrow cells infected with MSCV-GFP-IRES-P185 BCR-ABL retroviral stocks and the leukemic mice were imaged 28 days following transplantation. In FIG. 12C, C57BL/6 was injected subcutaneously with 1×10^5 B16 melanoma cells and imaged 7 days later. In FIG. 12D, SCID mice were injected subcutaneously with 1×10^6 U87 glioma cells and imaged 10 days later. […] [^18F]D-FAC PET also detected implanted murine B16 cells (representative of malignant melanoma) and human U87 cells (representative of glioma tumors). […]
# human U87 cells = test: microPET/CT of implanted U87 glioma; format: in vivo, SCID mice; details: imaged 10 days after 1×10^6 cells subcutaneously
# Protocol: as §1
smiles,measurement,setting,value
"Nc1ccn([C@@H]2O[C@H](CO)[C@@H](O)[C@@H]2[18F])c(=O)n1 [[^18F]D-FAC, 1-(2′-deoxy-2′-[^18F]fluoro-β-D-arabinofuranosyl)cytosine]","accumulation in spleen and lymph nodes among BL/6, BALB/c, NOD Ltj and BDC-2.5 mice",[1],highest levels
same,accumulation in the spleen and tumor DLNs relative to baseline scans,"MoMSV-induced sarcomas; day 15, peak of anti-tumor immune response",significantly increased
same,accumulation in the tumor,MoMSV-induced sarcomas; tumor,6.7±0.3 % ID/g
same,accumulation in the tumor DLNs,MoMSV-induced sarcomas; tumor draining lymph nodes,13±2.7 % ID/g
same,accumulation in tumor over background (contralateral muscle tissue),MoMSV-induced sarcomas; tumor lesions,1.9±0.3 % ID/g tumor over background
same,detection of implanted tumor cells by PET,murine B16 cells,detected
same,detection of implanted tumor cells by PET,human U87 cells,detected
